Data taken from paper PMC4242536, “Cell Surface Protein Disulfide Isomerase Regulates Natriuretic Peptide Generation of Cyclic Guanosine Monophosphate” (PLoS ONE, 2014).

Assays:
PDI full-length protein = molecular target: T1, PDI full-length protein (Homo sapiens, UniProt P07237); assay: Surface Plasmon Resonance binding to immobilized PDI (Biacore T200); details: SPR, 25°C, pH 7.4
T1 construct: PDI full-length protein (Sigma, St. Louis, MO) was immobilized onto a CM5 sensorchip; purchased Sigma (St. Louis, MO)
Description: SPR measurements were performed at 25°C on a Biacore T200 biosensor (GE Healthcare). PDI full-length protein (Sigma, St. Louis, MO) was immobilized onto a CM5 sensorchip using an amine coupling immobilization kit (GE Healthcare) as instructed by the supplier. After the chip was washed with Biacore running buffer (150 mM NaCl, and 0.005% (w/v) Polysorbate 20, 10 mM HEPES, pH 7.4), peptides ANP, BNP or CNP were injected at 40 ul/min for 30 s and allowed to dissociate for 150 s. Residual bound peptide was desorbed with 350 mM NaCl. Binding kinetics were derived from sensorgrams using Bioevaluation software version 4.1.1 (GE Healthcare).

[1] = tested on: human mesangial cells (HMCs); assay: Total cellular cGMP (BIOTRAK enzyme immunoassay) in HMCs stimulated by natriuretic peptides; type: cell-based
Description: (§1) Human umbilical vein endothelial cells (HUVECs), human aortic smooth muscle cells (HASMCs), and pig kidney epithelial cells (LLC-PK1) were purchased from American Type Culture Collection (ATCC) (Manassas, VA). HUVECs were cultured in endothelial growth medium (EGM-2) with supplements (Lonza, Hopkinton, MA). HASMCs were cultured in smooth muscle cells growth medium (SmBM) with supplements (Lonza). Primary human glomerular mesangial cells (HMCs) (Cell Systems Inc., Kirkland, WA) were grown in mesangial growth media with supplements (Cell Systems Inc.). LLC-PK1 cells were grown in Dullbecco's Modification of Eagle's Medium (DMEM) containing 10% FBS. All cell cultures were grown at 37°C in humidified 5% CO2 air. Primary cells from passage 3 to 7 were used in this study.
(§2) Total cellular cGMP was measured using the BIOTRAK cGMP enzyme immunoassay system Kit (GE Healthcare) as previously described. Briefly, cells were plated in 96-well plates and incubated overnight to reach 80% confluence. The cells were stimulated with different concentrations of synthetic natriuretic peptides dissolved in basic culture medium containing 0.5 mM IBMX for 30 minutes, then lysed. All samples were completed in triplicate for each experiment. The amount of cGMP was calculated from a standard curve that was generated in parallel. […]

[2] = tested on: human aortic smooth muscle cells (HASMCs); assay: Total cellular cGMP (BIOTRAK enzyme immunoassay) in HASMCs stimulated by natriuretic peptides; type: cell-based; details: 30 minutes with NP, 0.5 mM IBMX, p ≤0.05 vs samples without bacitracin, 3 independent experiments in triplicate
Description: (§3) Human umbilical vein endothelial cells (HUVECs), human aortic smooth muscle cells (HASMCs), and pig kidney epithelial cells (LLC-PK1) were purchased from American Type Culture Collection (ATCC) (Manassas, VA). HUVECs were cultured in endothelial growth medium (EGM-2) with supplements (Lonza, Hopkinton, MA). HASMCs were cultured in smooth muscle cells growth medium (SmBM) with supplements (Lonza). Primary human glomerular mesangial cells (HMCs) (Cell Systems Inc., Kirkland, WA) were grown in mesangial growth media with supplements (Cell Systems Inc.). LLC-PK1 cells were grown in Dullbecco's Modification of Eagle's Medium (DMEM) containing 10% FBS. All cell cultures were grown at 37°C in humidified 5% CO2 air. Primary cells from passage 3 to 7 were used in this study. Total cellular cGMP was measured using the BIOTRAK cGMP enzyme immunoassay system Kit (GE Healthcare) as previously described. Briefly, cells were plated in 96-well plates and incubated overnight to reach 80% confluence. The cells were stimulated with different concentrations of synthetic natriuretic peptides dissolved in basic culture medium containing 0.5 mM IBMX for 30 minutes, then lysed. All samples were completed in triplicate for each experiment. The amount of cGMP was calculated from a standard curve that was generated in parallel. […]

[3] = tested on: human umbilical vein endothelial cells (HUVECs); assay: Total cellular cGMP (BIOTRAK enzyme immunoassay) in HUVECs stimulated by natriuretic peptides; type: cell-based; details: 30 minutes with NP, 0.5 mM IBMX, p ≤0.05 vs samples without bacitracin, 3 independent experiments in triplicate
Description: as §3

[4] = tested on: pig kidney epithelial cells (LLC-PK1); assay: Total cellular cGMP (BIOTRAK enzyme immunoassay) in LLC-PK1 cells stimulated by ANP; type: cell-based
Description: as §1, §2

PDI = assay: Diphtheria toxin sensitivity assay (cell survival) in HMCs; type: cell-based, human; details: DT 30 minutes then 72 hours, p<0.05, 3 independent experiments
GC-B = assay: Western blot of GC-B expression in HMCs; type: cell-based, human; details: HMCs with and without bacitracin
Description: as §1, with “study. Conventional western blotting was used to identify PDI in cellular proteins and was described previously.” for “study.”

HMCs, HASMCs, and HUVECs = assay: Total cellular cGMP in HMCs, HASMCs and HUVECs (summary over cells); type: cell-based, human
Description: as §3

T1 sequence (P07237 18-508, species assumed): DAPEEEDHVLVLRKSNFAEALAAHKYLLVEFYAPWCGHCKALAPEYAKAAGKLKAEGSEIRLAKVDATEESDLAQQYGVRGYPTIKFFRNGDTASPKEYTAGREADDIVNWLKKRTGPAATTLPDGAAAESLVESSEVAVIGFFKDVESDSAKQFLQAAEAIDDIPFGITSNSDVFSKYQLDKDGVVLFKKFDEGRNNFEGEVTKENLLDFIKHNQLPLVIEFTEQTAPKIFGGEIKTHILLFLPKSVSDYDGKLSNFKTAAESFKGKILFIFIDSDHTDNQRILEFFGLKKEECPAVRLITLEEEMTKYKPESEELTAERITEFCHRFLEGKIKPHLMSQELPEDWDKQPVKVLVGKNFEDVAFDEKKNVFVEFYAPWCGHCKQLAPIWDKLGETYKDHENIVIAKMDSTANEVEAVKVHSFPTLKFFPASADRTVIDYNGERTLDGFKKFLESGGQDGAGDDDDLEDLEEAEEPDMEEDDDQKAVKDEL

Q: `CC[C@H](C)[C@@H]1NC(=O)[C@H](CCCNC(=N)N)NC(=O)[C@H](CC(=O)O)NC(=O)[C@H](CCSC)NC(=O)[C@H](CCCCN)NC(=O)[C@H](CCCNC(=N)N)NC(=O)CNC(=O)[C@H](Cc2ccccc2)NC(=O)[C@@H](NC(=O)CNC(=O)[C@H](CO)NC(=O)CNC(=O)[C@H](CCC(N)=O)NC(=O)[C@@H](NC(=O)[C@H](CCSC)NC(=O)[C@H](CCCCN)NC(=O)[C@@H]2CCCN2C(=O)[C@@H](N)CO)C(C)C)CSSC[C@@H](C(=O)N[C@@H](CCCCN)C(=O)N[C@H](C(=O)N[C@@H](CC(C)C)C(=O)N[C@@H](CCCNC(=N)N)C(=O)N[C@@H](CCCNC(=N)N)C(=O)N[C@@H](Cc2c[nH]cn2)C(=O)O)C(C)C)NC(=O)CNC(=O)[C@H](CC(C)C)NC(=O)CNC(=O)[C@H](CO)NC(=O)[C@H](CO)NC(=O)[C@H](CO)NC(=O)[C@H](CO)NC1=O` [BNP, B-type natriuretic peptide] was tested. Which “binding to immobilized PDI (in words)” value (PDI full-length protein; 0–1600 nM ANP and BNP, 200 nM comparison of NPs) did it give?
A: The value was “highest binding affinity with PDI and displayed dose-dependent increases in binding”.

Q: Which “affinity for PDI (in words)” value (PDI full-length protein; compared with ANP and BNP, Fig. 5D) does the source give for C-type natriuretic peptide [CNP] here?
A: Its value is “much lower affinity”.

Q: For bacitracin, which “inhibitory effect on cGMP levels in the presence of protease inhibitors” value ([1]; HMCs stimulated by ANP and CNP, with or without protease inhibitor cocktail, 3 independent experiments) is on record?
A: The value was “did not lose its inhibitory effects on cGMP levels”.

Q: What about the “attenuation of ANP, BNP, and CNP-mediated increases in cGMP” value ([1]; HMCs, 30 minutes with NP, 0.5 mM IBMX, p ≤0.05 vs samples without bacitracin, 3 independent experiments in triplicate) of the same compound?
A: The value was “significantly attenuated”.

Q: And the “attenuation of ANP, BNP, and CNP-mediated increases in cGMP” value [2]?
A: The value was “significantly attenuated”.

Q: What about the “attenuation of ANP, BNP, and CNP-mediated increases in cGMP” value [3] of the same compound?
A: The value was “significantly attenuated”.

Q: What about the “inhibition of ANP-mediated increases in cGMP” value ([4]; LLC-PK1 cells (no detectable PDI), p>0.05) of the same compound?
A: Its value is “did not inhibit”.

Q: And the “cell survival on diphtheria toxin (inhibition of PDI-dependent DT toxicity)” value (PDI)?
A: The value was “inhibited PDI function”.

Q: And the “cell survival on diphtheria toxin (inhibition of PDI-dependent DT toxicity)” value (PDI; listed as Bacitracin)?
A: The value was “increased cell survival significantly”.

Q: And the “effect on GC-B expression” value (GC-B)?
A: The value was “no difference in GC-B expression”.

Q: And the “dose dependence of the inhibitory effect on NP-mediated cGMP” value (HMCs, HASMCs, and HUVECs; data not shown, HMCs, HASMCs and HUVECs)?
A: Its value is “dose dependent”.

Q: What about the “effect on NP cGMP generation compared to RL90 or siRNA knockdown” value (HMCs, HASMCs, and HUVECs; in words) of the same compound?
A: Its value is “greater effect”.

Q: Which “increase of ANP stimulated cGMP production” value ([4]; LLC-PK1 cells, purified PDI added, compared with cells without PDI, second of two values (condition not given, Fig. 3C)) does the source give for protein disulfide isomerase [PDI] here?
A: The value was 39%.
